According to patent US20260200849A1, “CATIONIC LIPIDS AND PREPARATION METHOD THEREOF” (RiboX Therapeutics HK Limited, priority 2024, published 2026):

Experiments:
[1] = LNP size and polydispersity index (PDI) by dynamic light scattering (Zetasizer); type: physicochemical; conditions: for Size (nm): Formulation No. 001 (Ionizable lipid:DSPC:cholesterol:DMG-PEG2000 = 50:10:38.5:1.5, N/P 6), RNA No. 331; for PDI: Formulation No. 001, RNA No. 331
Experimental: (§1) The LNP size and polydispersity index (PDI), determined by dynamic light scattering (DLS), and zeta potential were measured by a Zetasizer machine (Malvern). RNA concentration and encapsulation efficacy (EE %) were analyzed by the Quant-IT Ribogreen kit by calculating the percentage encapsulation at 100%—(RNA-LNPs/RNA-LNPs with Triton X-100).

[2] = RNA encapsulation efficacy (EE %) by Quant-IT Ribogreen kit; type: physicochemical; conditions: LNP, Formulation No. 001, RNA No. 331
Experimental: as §1

Hep G2 cells [3] = assay: In vitro expression: luciferase activity in Hep G2 cells transfected with RNA-LNPs; type: cell-based; conditions: Formulation No. 001, RNA No. 331 (firefly-luciferase), 100 ng/mL RNA-LNPs, 72 hours post transfection
Experimental: 2E5 Hep G2 cells were transfected with 100 ng/mL of RNA-LNPs encoding for firefly-luciferase. At 72 hours post transfection, the cells were washed and lysed. The luciferase expression (2-well repeat) was determined in the cell lysates with the luciferase assay reagent kit (Promega), according to the kit protocol, luciferase activity was measured by a luminometer.

Hep G2 cells [4] = assay: In vitro toxicity: Hep G2 cell viability by CellTiter-Glo; type: cell-based; conditions: Formulation No. 001, RNA No. 331, 1 μg/mL RNA-LNPs, 72 hours post transfection, cell only = 100%
Experimental: 2E5 Hep G2 cells were transfected with 1 μg/mL RNA-LNPs. At 72 hours post transfection, cell viability (2-well repeat) was determined with the CellTiter-Glo® reagent kit, according to the kit protocol, measured by a luminometer. Cell only as control (100%).
The cell viability was calculated according to the following formula: […]

Balb/c mice = assay: In vivo expression by IV, 0.05 mg/kg luciferase RNA-LNPs, IVIS luminescence; conditions: Formulation No. 001, RNA No. 331; female Balb/c mice, 0.05 mg*kg−1 intravenous, 24-hours post injection
Method in brief: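 IVIS bioluminescence was read after IP luciferin (15 mg/ml): whole-body at 24 and 72 h, or whole-body/liver/spleen at 24 h. Dosing was a single IV injection of 0.05 mg*kg−1 RNA-LNPs encoding firefly luciferase into 7-8 week old female Balb/c mice, N=3.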

MCP-1 = assay: In vivo tolerability by IV: serum MCP-1 by Luminex; parameters: species or system C57BL/6J mice; conditions: Formulation No. 001, RNA No. 331, male C57BL/6J mice, 1.0 mg*kg/1 intravenous; for MCP-1 at 2 h: 2 hours post injection; for MCP-1 at 24 h: 24 hours post injection
Method in brief: (§2)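 Male C57BL/6J mice aged 6-8 weeks (N=3) received 1.0 mg*kg−1 firefly-luciferase RNA-LNPs intravenously, with PBS as negative control. Serum taken at 2 and 24 h post-injection was assayed for MCP-1 and IL-6 by Luminex.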

IL-6 = assay: In vivo tolerability by IV: serum IL-6 by Luminex; parameters: species or system C57BL/6J mice; conditions: Formulation No. 001, RNA No. 331, male C57BL/6J mice, 1.0 mg*kg/1 intravenous; for IL-6 at 2 h: 2 hours post injection; for IL-6 at 24 h: 24 hours post injection
Method in brief: as §2

C57BL/6J mice = assay: In vivo expression by IV, 1.0 mg/kg luciferase RNA-LNPs, whole-body and organ IVIS luminescence; conditions: Formulation No. 001, RNA No. 331; male C57BL/6J mice, 1.0 mg*kg−1 intravenous, 24-hours post injection
Method in brief: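 Male C57BL/6J mice, 6-8 weeks old (N=3), received 1.0 mg*kg−1 firefly-luciferase RNA-LNPs IV. At 24 h post-dose, luciferin (15 mg/ml) was given IP, and whole-body, liver, spleen, kidney, small and large intestine luminescence was imaged by IVIS.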

Row | Structure (SMILES) | Size (nm) [1] | PDI [1] | EE (%) [2] | In vitro Expression (Mean) (Hep G2 cells [3]) | In vitro cell viability (%) (Mean) (Hep G2 cells [4]) | Liver (p/s) (Mean) (Balb/c mice) | Spleen (p/s) (Mean) (Balb/c mice) | Whole body (p/s) (Mean) (Balb/c mice) | MCP-1 at 2 h (MCP-1) | MCP-1 at 24 h (MCP-1) | IL-6 at 2 h (IL-6) | IL-6 at 24 h (IL-6) | Kidney (p/s) (C57BL/6J mice) | Large intestine (p/s) (C57BL/6J mice) | Liver (p/s) (C57BL/6J mice) | Small intestine (p/s) (C57BL/6J mice) | Spleen (p/s) (C57BL/6J mice) | Whole body (p/s) (C57BL/6J mice)
1 | CCCCC/C=C\C/C=C\CCCCCCCCOC(=O)NC(COC(=O)NCCNC)C(=O)OCCCCCC(=O)OCC(CCCCCCCC)CCCCCCCCCC (stereo not drawn) [Lipid 907] | 83.82 nm | 0.02 | 98.30% | 2.56E+04 | 97.33% | 1.46E+08 p/s | 3.43E+07 p/s | 1.18E+09 p/s | 1020 pg/mL | 81.5 pg/mL | 14 pg/mL | 2.35 pg/mL | 5.43E+06 p/s | 3.94E+07 p/s | 1.91E+08 p/s | 3.03E+08 p/s | 5.98E+07 p/s | 8.99E+08 p/s
2 | CCCCCCCCCCCOC(=O)NC(COC(=O)NCCN1CCCCC1)C(=O)OCCCCCCCC(=O)OC(CCCCCCCC)CCCCCCCC (stereo not drawn) [Lipid 914] | 70.33 nm | 0.04 | 87.49% | 1.56E+06 | 79.98% | 3.77E+08 p/s | 5.60E+07 p/s | 1.19E+09 p/s | 452 pg/mL | 148 pg/mL | 4.6 pg/mL | 2.77 pg/mL | 1.72E+07 p/s | 4.60E+07 p/s | 1.75E+09 p/s | 4.42E+08 p/s | 2.11E+08 p/s | 2.46E+09 p/s
3 | CCCCC/C=C\C/C=C\CCCCCCCCOC(=O)C(COC(=O)NCCN1CCCCC1)NC(=O)OCCCCCCCCOC(=O)C(CCCCCC)CCCCCCCC (stereo not drawn) [Lipid 918] | 69.23 nm | 0.01 | 93.47% | 1.25E+06 | 85.92% | 4.14E+08 p/s | 7.74E+07 p/s | 1.21E+09 p/s | 880 pg/mL | 300 pg/mL | 9.3 pg/mL | 4.73 pg/mL | 1.99E+07 p/s | 8.43E+07 p/s | 4.67E+09 p/s | 6.30E+08 p/s | 3.95E+08 p/s | 5.08E+09 p/s
4 | CCCCC/C=C\C/C=C\CCCCCCCCOC(=O)C(COC(=O)NCCN1CCCCCC1)NC(=O)OCCCCCCCCOC(=O)C(CCCCCC)CCCCCCCC (stereo not drawn) [Lipid 919] | 66.17 nm | 0.02 | 96.20% | 4.10E+05 | 82.59% | 5.47E+08 p/s | 2.28E+08 p/s | 1.86E+09 p/s | 1290 pg/mL | 256 pg/mL | 25.8 pg/mL | 5.07 pg/mL | 1.88E+07 p/s | 1.29E+08 p/s | 3.54E+09 p/s | 6.16E+08 p/s | 6.74E+08 p/s | 6.01E+09 p/s
5 | CCCCCCCCCCCOC(=O)CCCCCOC(=O)C(COC(=O)NCCN1CCCCC1)NC(=O)OCCCCCCCCOC(=O)C(CCCCCC)CCCCCCCC (stereo not drawn) [Lipid 923] | 81.29 nm | 0.03 | 88.91% | 7.34E+05 | 88.59% | 4.09E+08 p/s | 5.03E+07 p/s | 1.57E+09 p/s | 639 pg/mL | 75 pg/mL | 11.9 pg/mL | 2.37 pg/mL | 5.13E+06 p/s | 5.94E+07 p/s | 1.44E+09 p/s | 3.01E+08 p/s | 3.85E+08 p/s | 2.42E+09 p/s
6 | CCCCCCCCC(CCCCCC)C(=O)OCCCCCCCCOC(=O)NC(COC(=O)NCCN1CCCCC1)C(=O)OCCCCCCCCCCC(=O)OCCCCCC (stereo not drawn) [Lipid 928] | 75.43 nm | 0.01 | 87.36% | 4.72E+05 | 95.03% | 2.35E+08 p/s | 4.80E+07 p/s | 9.65E+08 p/s | 574 pg/mL | 74.9 pg/mL | 11.9 pg/mL | 30.5 pg/mL | 8.93E+06 p/s | 2.23E+07 p/s | 2.41E+09 p/s | 1.61E+08 p/s | 3.25E+08 p/s | 2.17E+09 p/s
